{"source": "patent US8207206B2", "about": "“(S,R)-3-phenyl-4,5 dihydro-5-isoxazole acetic acid-nitric oxide and use thereof as anti-cancer and antiviral agent” (OncoNOx APS, priority 2007, dated 2012)", "key": {"B16 mouse melanoma cells": {"system": "B16 mouse melanoma cells", "experiment": "MTT / CV cell viability test", "type": "cell-based", "details": "24 h", "procedure": "(§1) Rat glioma cell line C6 was a kind gift from Dr. Pedro Tranque (Universidad de Castilla-La Mancha, Albacete, Spain), murine melanoma B16 cell line was a kind gift from Dr. Sinisa Radulovic (Institute for Oncology and Radiology of Serbia, Belgrade, Serbia) while mouse fibrosarcoma L929 was obtained from the European Collection of Animal Cell Cultures (Salisbury, UK). Cells were grown in HEPES-buffered RPM, 1640 medium supplemented with 5% FCS, 2 mM glutamine, 0.01% sodium pyruvate, 5×10^−5 M 2-mercaptoethanol and antibiotics (culture medium) at 37° C. in a humidified atmosphere with 5% CO2. After conventional trypsinization the cells were seeded at a concentration of 10^4 cells/well in a 96-well plate, of 2×10^5 cells/well in a 6-well plate or at 3×10^4 cells/well in a 4-well chamber slide, cultivated overnight, and then exposed to the test compound.\n(§2) The cells were seeded in flat-bottom 96-well plates (10^4 cells/well) in a final volume of 200 μl of culture medium, incubated overnight, then treated with different concentrations of the test compound. After 24 h incubation, cell viability was assessed using 3-4,5-dimethylthiazol-2-yl)-2,5-diphenyltetrazolium bromide (MTT) test, based on the mitochondrial-dependent reduction of MTT to formazan, or by crystal violet (CV) staining of adherent cells, as previously described (Mijatovic et al CMLS 2004). The results are presented as % of control values obtained in untreated cultures. The rate of cell proliferation was also determined using flow cytometric analysis of cells labeled with CFSE (Kang 2005). The cells were detached, added with 1.5 μM CFSE and allowed to stand for 15 min at 37° C., then washed twice and seeded in 6-well plates at 2×10^5. The cells were treated with the compound for 24 and 48 h, trypsinized and washed twice. Finally, the cells were resuspended in PBS and analyzed by flow cytometry. Green fluorescence emission from cells illuminated with excitation light of 488 nm was measured with a FACS Calibur (BD, Heidelberg, Germany) and analyzed using the CellQuest software."}, "C6 rat astrocytoma cells": {"system": "C6 rat astrocytoma cells", "experiment": "MTT / CV cell viability test", "type": "cell-based", "details": "24 h", "procedure": "as §1, §2"}, "[1]": {"system": "L929 mouse fibrosarcoma cells", "experiment": "MTT / CV cell viability test", "type": "cell-based", "details": "24 h", "procedure": "as §1, §2"}, "C6 cells [2]": {"system": "C6 cells", "experiment": "CFSE staining, tumor cell proliferation rate (flow cytometry)", "type": "cell-based, rat", "details": "C6, GIT27-NO 25 μg/ml, after 48 h; control 8.37%", "procedure": "as §2"}, "C6 cells [3]": {"system": "C6 cells", "experiment": "Nitrite accumulation (Griess reaction)", "type": "cell-based, rat", "details": "24 h", "procedure": "Nitrite accumulation was measured by Griess reaction as previously described (Mijatovic et al CMLS 2004)."}, "L929 cells": {"system": "L929 cells", "experiment": "LDH release assay (cell death)", "type": "cell-based, mouse", "details": "L929, dose-dependent (24 h) and time-dependent (25 μg/ml), significant after 18 h", "procedure": "(§3) As a marker of necrotic cell death, the release of intracellular enzyme LDH, which mediates the conversion 2,4-dinitrophenylhydrazine into visible hydrazone precipitate in the presence of pyruvate, was measured. The cells were seeded in flat-bottom 96-well plates as indicated above and the assay was performed after 24 h incubation, as previously described (Decker et al). The percentage of dead cells was determined using the following formula: [(E−C)/(T−C)]×100, wherein E is the experimental absorbance of treated cultures measured at 492 nm, C is the absorbance of supernatants of control untreated cells, and T is the absorbance corresponding to the maximal (100%) LDH release of Triton-lysed cells. Cell cycle analysis and apoptosis detection were carried out exactly as described in the literature (Mijatovic CMLS 2005). Acidic vesicular organelles, which characterise autophagy, are stained by vital dye acridin orange. The intensity of red fluorescence is proportional to the acidity and volume of the organelles, while the cytoplasm and nucleolus emits bright green and dim red (Kanzawa 2004). […] Green (510-530 nm) and red (>650 nm) fluorescence emission from 10^4 cells illuminated with blue (488 nm) excitation light was measured with a FACS Calibur and analyzed using CellQuest software."}, "C6 cells [4]": {"system": "C6 cells", "experiment": "Autophagy detection by acridin orange staining (flow cytometry)", "type": "cell-based, rat", "details": "C6, 25 μg/ml, 24 h", "procedure": "as §3"}, "C6 cells [5]": {"system": "C6 cells", "experiment": "ROS measurement by DHR fluorescence (flow cytometry)", "type": "cell-based, rat", "details": "C6, 25 μg/ml, 24 h", "procedure": "The cells grown in the 6-well plate were stained with 1 μM dihydrorhodamine 123 (DHR) 20 min before the treatment with the test compound. At the end of the cultivation period the cells were detached, washed and resuspended in PBS. Analysis of ROS release was performed with a FACSCalibur and analyzed using CellQuest Pro software (Kaludjerovic 2005)."}, "ConA-induced hepatitis": {"system": "ConA-induced hepatitis", "experiment": "Hepatitis induced by concanavalin (ConA) injection in NMRI mice", "type": "in vivo", "details": "prophylactic, all tested doses (0.5 and 1 i.p., 5 mg/mouse p.o.), -24 and -1 h prior to ConA, blood 8 h after ConA, vs vehicle", "procedure": "ConA-induced hepatitis is a cell-mediated immunoinflammatory condition similar to different immunoinflammatory conditions of liver diseases in humans that can be induced in mice by a single intravenous injection of ConA. This disease is characterized by a marked increase in the plasma levels of transaminase shortly (8-24 hours) after ConA challenge and simultaneous infiltration of the liver with neutrophils, macrophages and T cells followed by apoptosis and necrosis of the hepatocytes.\nHepatitis was induced by ConA (Sigma Chemical, St. Louis, Mo.) injection into the tail veins in six to 9 weeks Naval Medical Research Institute (NMRI) male mice. Four groups of mice were treated or i.p. with Git27-NO at the doses of 0.5 and 1 or p.o. at 5 mg/mouse or with the vehicle, −24 and −1 hours prior to ConA. The animals were sacrificed for blood collection 8 hours after Con A injection and plasma alanine aminotransferase (ALT) activity was determined by a standard photometric assay using a bichromatic analyzer."}}}
{"smiles": "N#Cc1c(COC(=O)CC2CC(c3ccccc3)=NO2)no[n+]1[O-]", "note": "(racemic) [GIT27-NO, (S,R)-3-phenyl-4,5 dihydro-5-isoxazole acetic acid-nitric oxide]", "values": [{"measurement": "viability (MTT) of GIT27-NO treated cells in the presence of autophagic inhibitors", "setting": "B16 mouse melanoma cells; B16, GIT27-NO 25 μg/ml, 3-MA 1 mg/ml or Baf 0.5 μM", "result": "recovered"}, {"measurement": "survival (MTT) of GIT27-NO treated cells with specific MAP kinase inhibitors", "setting": "B16 mouse melanoma cells; B16, GIT27-NO 25 μg/ml, JNK inhibitor SP600125 0.75 μM", "result": "significantly improved the survival"}, {"measurement": "viability (MTT) of GIT27-NO treated cells with ROS scavenger NAC", "setting": "B16 mouse melanoma cells; B16, GIT27-NO 25 μg/ml, NAC 2.5 μM", "result": "restored the viability"}, {"measurement": "viability (MTT) of GIT27-NO treated cells with PTK inhibitor tyrphostin", "setting": "B16 mouse melanoma cells; B16, GIT27-NO 25 μg/ml, tyrphostin 5 μM", "result": "almost completely restored the viability"}, {"measurement": "cell viability (MTT, mitochondrial respiration)", "setting": "B16 mouse melanoma cells; B16 cells, different concentrations, cell number also reduced by CV", "result": "dose-dependent reduction of mitochondrial respiration"}, {"measurement": "viability (MTT) of GIT27-NO treated cells in the presence of autophagic inhibitors", "setting": "C6 rat astrocytoma cells; C6, GIT27-NO 25 μg/ml, 3-MA 1 mg/ml or Baf 0.5 μM", "result": "recovered"}, {"measurement": "survival (MTT) of GIT27-NO treated cells with specific MAP kinase inhibitors", "setting": "C6 rat astrocytoma cells; C6, GIT27-NO 25 μg/ml, ERK inhibitor PD98059 50 μM, JNK inhibitor SP600125 0.75 μM", "result": "significantly improved the survival"}, {"measurement": "viability (MTT) of GIT27-NO treated cells with ROS scavenger NAC", "setting": "C6 rat astrocytoma cells; C6, GIT27-NO 25 μg/ml, NAC 2.5 μM", "result": "restored the viability"}, {"measurement": "viability (MTT) of GIT27-NO treated cells with PTK inhibitor tyrphostin", "setting": "C6 rat astrocytoma cells; C6, GIT27-NO 25 μg/ml, tyrphostin 5 μM", "result": "almost completely restored the viability"}, {"measurement": "viability (MTT) of GIT27-NO treated cells in parallel with NO-scavenger hemoglobin", "setting": "C6 rat astrocytoma cells; C6, hemoglobin 12.5 μM, GIT27-NO 25 mg/ml (as printed in b12)", "result": "almost completely restored"}, {"measurement": "cell viability (MTT, mitochondrial respiration)", "setting": "C6 rat astrocytoma cells; C6 cells, different concentrations, cell number also reduced by CV", "result": "dose-dependent reduction of mitochondrial respiration"}, {"measurement": "survival (MTT) of GIT27-NO treated cells with specific MAP kinase inhibitors", "setting": "[1]; L929, GIT27-NO 25 μg/ml, ERK inhibitor PD98059 50 μM, p38 inhibitor SB202190 20 μM", "result": "significantly improved the survival"}, {"measurement": "viability (MTT) of GIT27-NO treated cells with ROS scavenger NAC", "setting": "[1]; L929, GIT27-NO 25 μg/ml, NAC 2.5 μM", "result": "restored the viability"}, {"measurement": "viability (MTT) of GIT27-NO treated cells with PTK inhibitor tyrphostin", "setting": "[1]; L929, GIT27-NO 25 μg/ml, tyrphostin 5 μM", "result": "almost completely restored the viability"}, {"measurement": "cell viability (MTT, mitochondrial respiration)", "setting": "[1]; L929 cells, different concentrations, cell number also reduced by CV", "result": "dose-dependent reduction of mitochondrial respiration"}, {"measurement": "CFSE R1 = parent population", "setting": "C6 cells [2]", "result": 42.53, "unit": "%"}, {"measurement": "accumulation of nitrites (NO release) in culture media alone", "setting": "C6 cells [3]; in the absence of cells", "result": "failed to release NO and to form nitrites"}, {"measurement": "accumulation of nitrites in cell culture supernatants", "setting": "C6 cells [3]; in the presence of C6 cells", "result": "significant amount of nitrites"}, {"measurement": "LDH release", "setting": "L929 cells", "result": "induced LDH release"}, {"measurement": "acidic autophagic vesicles (red fluorescence of acridin orange)", "setting": "C6 cells [4]", "result": "significantly increased the intensity of bright red fluorescence"}, {"measurement": "intracellular production of ROS (DHR fluorescence)", "setting": "C6 cells [5]", "result": "markedly increased"}, {"measurement": "plasma ALT activity", "setting": "ConA-induced hepatitis", "result": "significantly reduced"}]}
